From US11918662B2, “Heterocyclic compounds and imaging agents for imaging huntingtin protein” (CHDI Foundation, Inc., priority 2020, dated 2024)
pIC50: −log10 of the molar value. Read-outs that look alike come from different tables or passages of the source.

Target: T1, MBP-HTT(1-89)Q46-His(6×) (“Exon1-Q46”) protein aggregates (Homo sapiens, UniProt P42858, INS38QQQQQQQQQQQQQQQQQQQQQQQQQ)
T1 construct: MBP-HTT(1-89)Q46-His(6×); His(6×) (C); made in house
Test: Exon1-Q46 Radioligand Binding Assay

[1] = displacement of 0.3 nM [3H3-methyl]-5-((5-methoxypyridin-2-yl)methoxy)-2-(pyrazin-2-yl)benzo[d]oxazole from 1 μM aggregated Exon1-Q46, 60 minutes at 37° C., read-out: Potency Range (IC50)

T1 sequence (P42858 with tags, fused parts or gaps with the stated changes limits assumed): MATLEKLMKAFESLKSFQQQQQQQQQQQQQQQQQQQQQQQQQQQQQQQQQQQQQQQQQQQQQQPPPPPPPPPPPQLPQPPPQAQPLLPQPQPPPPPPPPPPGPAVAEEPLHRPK

SMILES | pIC50 [1] | pIC50
COc1ccc(C(=O)NCCn2c(=O)c3cccn3c3ccccc32)nc1 [Example 14-1, 5-Methoxy-N-(2-{4-oxo-4H,5H-pyrrolo[1,2-a]quinoxalin-5-yl}ethyl)pyridine-2-carboxamide] | > 7.00 | 
COc1ccc(C(=O)NCCn2c(=O)c3cccn3c3ccc(F)cc32)nc1 [Example 14-2] | > 7.00 | 
Cn1nc(C(=O)NCCn2c(=O)c3cccn3c3ccc(F)cc32)ccc1=O [Example 15-1] | > 7.00 | 
Cn1ncc2c(=O)n(CCNC(=O)c3ccc(F)cc3F)c3cc(F)ccc3c21 [Example 16-1] | > 7.00 | 
Cn1ncc2c(=O)n(CCNC(=O)c3ccccc3F)c3cc(F)ccc3c21 [Example 16-2] | > 7.00 | 
COc1ccc(CCCn2c(=O)c3cccn3c3ccc(F)cc32)cn1 [Example 18-1, 7-Fluoro-5-[3-(6-methoxy-3-pyridyl)propyl]pyrrolo[1,2-a]quinoxalin-4-one] | > 7.00 | 
CCC[CH2][Sn]([CH2]CCC)([CH2]CCC)[c]1ccc(NC(=O)CCn2c(=O)c3cnn(C)c3c3ccc(F)cc32)c(F)c1 [Example 24-1, 3-{7-Fluoro-1-methyl-4-oxo-1H,4H,5H-pyrazolo[4,3-c]quinolin-5-yl}-N-[2-fluoro-4-(tributylstannyl)phenyl]propanamide] |  | > 7.00
Cn1ncc2c(=O)n(CCC(=O)Nc3ccc(F)cc3F)c3c[c]([Sn]([CH3])([CH3])[CH3])ccc3c21 [Example 26-1, N-(2,4-difluorophenyl)-3-[1-methyl-4-oxo-7-(trimethylstannyl)-1H,4H,5H-pyrazolo [4,3-c]quinolin-5-yl]propanamide] |  | > 7.00
O=C(CCCn1c(=O)c2cccn2c2ccc(F)cc21)N1CCOCC1 [Example 29-1] | > 7.00 | 
CC1CC(C)CN(C(=O)CCCn2c(=O)c3cccn3c3ccccc32)C1 (stereo not drawn) [Example 29-2] | > 7.00 | 
O=C(Cn1c(=O)c2cccn2c2ccc(F)cc21)N1CCCCC1 [Example 29-3] | > 7.00 | 
Cc1ccc(NC(=O)CCn2c(=O)c3cccn3c3ccccc32)cc1 [Example 29-4] | > 7.00 | 
O=C(CCCn1c(=O)c2cccn2c2ccc(Br)cc21)N1CCCCC1 [Example 29-5] | > 7.00 | 

Further lines, with some results ahead:

pIC50 [1] | SMILES | pIC50
> 7.00 | O=C(CCn1c(=O)c2cn[nH]c2c2ccc(F)cc21)Nc1ccc(F)cc1F [Example 19-1, N-(2,4-Difluorophenyl)-3-(7-fluoro-4-oxo-1H-pyrazolo[4,3-c]quinolin-5-yl)propanamide] | 
> 7.00 | [2H]C([2H])([2H])n1ncc2c(=O)n(CCC(=O)Nc3ccc(F)cc3F)c3cc(F)ccc3c21 [Example 19-3] | 
> 7.00 | [2H]C([2H])([2H])n1cc2c(=O)n(CCC(=O)Nc3ccc(F)cc3F)c3cc(F)ccc3c2n1 [Example 19-4] | 
> 7.00 | [2H]C(C(=O)Nc1ccc(F)cc1F)C([2H])([2H])n1c(=O)c2cnn(C)c2c2ccc(F)cc21 (stereo not drawn) [Example 20-1] | 
> 7.00 | Cn1ncc2c(=O)n(CCC(=O)Nc3ccc(F)cc3F)c3cc(F)c(F)cc3c21 [Example 21-1] | 
> 7.00 | Cn1ncc2c(=O)n(CCC(=O)Nc3ccc(F)cc3F)c3ccc(F)cc3c21 [Example 21-2] | 
> 7.00 | Cn1ncc2c(=O)n(CCC(=O)Nc3ccc(F)cc3F)c3cccc(F)c3c21 [Example 21-3] | 
> 7.00 | Cn1ccc2c3ccc(F)cc3n(CCC(=O)Nc3ccc(F)cc3F)c(=O)c21 [Example 22-1, N-(2,4-Difluorophenyl)-3-{7-fluoro-3-methyl-4-oxo-3H,4H,5H-pyrrolo[2,3-c]quinolin-5-yl}propanamide] | 
